The values below come from PMC6747455, “Active Site Architecture and Reaction Mechanism Determination of Cold Adapted β-D-galactosidase from Arthrobacter sp. 32cB” (International Journal of Molecular Sciences, 2019).

Assay [1] deals with ArthβDG_E441Q mutein (β-D-galactosidase from Arthrobacter sp. 32cB, E441Q) (Arthrobacter sp. 32cB). Put plainly: crystal structure; crystals grown in 25–45% Tacsimate, pH 6.0–8.0, seeded; space group P3121, one protein monomer in the asymmetric unit; dimer shown in Figure 2.
In assay [2] the target is T1, ArthβDG (Arthrobacter sp. 32cB, UniProt A0A023UGN9).
T1 construct: recombinant, pBAD/Myc-His A vector (pBAD-Bgal32cB), E. coli LMG 194 host; ion exchange and size exclusion; five-domain protein, 110 kDa; functional dimer; GH2 family; catalytic residues E441 and E517
T1 sequence (A0A023UGN9 1-1010): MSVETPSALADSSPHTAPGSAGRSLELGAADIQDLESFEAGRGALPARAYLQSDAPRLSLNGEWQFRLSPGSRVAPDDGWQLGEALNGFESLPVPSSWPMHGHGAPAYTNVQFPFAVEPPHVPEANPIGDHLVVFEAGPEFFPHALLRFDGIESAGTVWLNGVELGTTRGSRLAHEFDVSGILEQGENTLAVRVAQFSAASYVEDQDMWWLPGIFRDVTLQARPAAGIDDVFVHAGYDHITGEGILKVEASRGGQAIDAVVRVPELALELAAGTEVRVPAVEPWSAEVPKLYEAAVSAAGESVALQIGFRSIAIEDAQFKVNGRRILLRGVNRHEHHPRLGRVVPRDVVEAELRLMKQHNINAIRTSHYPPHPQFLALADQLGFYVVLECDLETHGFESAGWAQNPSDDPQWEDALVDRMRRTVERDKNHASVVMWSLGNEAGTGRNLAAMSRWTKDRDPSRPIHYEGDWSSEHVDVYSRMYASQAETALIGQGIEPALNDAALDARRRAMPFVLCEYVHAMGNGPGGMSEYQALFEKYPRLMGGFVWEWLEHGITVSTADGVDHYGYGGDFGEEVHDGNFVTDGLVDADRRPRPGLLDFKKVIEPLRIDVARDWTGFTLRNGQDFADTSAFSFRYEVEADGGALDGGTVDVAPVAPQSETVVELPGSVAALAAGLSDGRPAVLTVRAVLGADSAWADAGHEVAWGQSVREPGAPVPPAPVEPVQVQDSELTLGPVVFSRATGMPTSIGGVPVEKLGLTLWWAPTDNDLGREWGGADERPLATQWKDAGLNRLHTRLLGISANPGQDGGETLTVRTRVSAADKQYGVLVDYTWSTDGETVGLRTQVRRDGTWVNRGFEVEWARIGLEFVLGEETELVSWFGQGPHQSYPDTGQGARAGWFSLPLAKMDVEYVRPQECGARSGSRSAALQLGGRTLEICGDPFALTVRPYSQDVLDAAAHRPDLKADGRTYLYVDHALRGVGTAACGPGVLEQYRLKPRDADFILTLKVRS
Put plainly: hydrolysis in crystal, product seen by X-ray. The assay is classed as biochemical. The following applies: crystal soaked 1 min.

In assay [3] the target is T1, ArthβDG. Description: hydrolysis in crystal, blue coloration. The following applies: 3 to 20 molar excess; blue within 3 min; galactose found in the structure. The assay is classed as biochemical.

“ArthβDG_E441Q mutein (β-D-galactosidase from Arthrobacter sp. 32cB, E441Q) (enzyme)”: in assay [1], the stoichiometry N (as a rule, the number of molecules, sites or subunits per partner or assembly) was determined as 2.
Take `OC[C@H]1O[C@@H](O[C@H]2[C@H](O)[C@@H](O)C(O)O[C@@H]2CO)[C@H](O)[C@@H](O)[C@H]1O` (stereo partly drawn) [LAC, lactose]: the “hydrolysis in crystal, product seen by X-ray” value in assay [2] was “the active enzyme performed hydrolysis of lactose in crystal”.
As for `OC[C@H]1O[C@@H](Oc2c[nH]c3ccc(Br)c(Cl)c23)[C@H](O)[C@@H](O)[C@H]1O` [X-gal, 5-bromo-4-chloro-3-indolyl-β-D-galactopyranoside], the “hydrolysis in crystal, blue coloration” value in assay [3] is “the enzyme in the crystal was in its active form and performed hydrolysis of X-gal”.
